Test results published in US6268391A, “Benzylidene-1,3-dihydro-indol-2-one derivatives a receptor tyrosine kinase inhibitors, particularly of Raf kinases” (Glaxo Wellcome Inc., priority 1997, dated 2001).

Target: T1, Human cRaf1 (Homo sapiens, UniProt P04049)
T1 construct: poly-histidine (C); made in house
Assay: Raf kinase assay (cRaf1 assay / Raf/MEK cascade assay)
Type: biochemical
Conditions: Table 3; read-out: Raf Kinase activity
Protocol: The potency of cRaf1 dependent kinase activity was measured using one of two assay formats. The first measured cRaf1 catalyzed phosphorylation of MEK1, the natural substrate for cRaf1. This assay is referred to as the cRaf1 assay. The second measured the ability of cRaf1 to phosphorylate and activate MEK1. This assay is referred to as the Raf/MEK cascade assay.
Human cRaf1 tagged with poly histidine at the carboxyterminus was expressed in a baculovirus expression system and purfied by Ni chelate affinity chromatography. Human MEK1 was expressed in E. coli as a fusion protein with Glutathione-S-transferase, and purified by glutathione sepharose affinity chromatography. […] Reactions contained cRaf1 (20 nM), MEK1 (100-500 nM), [γ-^32 P]ATP ([…]), Mg^2+ (10 mM), MOPS (50 mM, pH 7.5). Reactions were incubated at room temperature for periods of time ranging from 20-120 minutes. Inhibitors were diluted in 100% DMSO prior to addition to the assay. Reactions were terminated with an equal volume of 0.5% phosphoric acid. MEK1 phosphorylation was detected by scintillation counting following collection of protein onto phosphocellulose filters.
Human cRaf1 and MEK1 were purified as described above. A peptide substrate phosphorylated by MEK1 was used as the final phosphoryl group acceptor. […] Assay conditions were the same as those described above except for the following modifications. Reactions contained cRaf1 (1-5 nM), MEK1 (60 nM), and peptide ([…]).

| IC50 [µM] | Compound |
| --- | --- |
| 10 to 100 | 2,6-Dibromo-4-[(5-glycoloyl-2-oxo-1,2-dihydro-3H-indol-3-ylidene)methyl]phenyl ethyl carbonate [Example 155] |
| < 1 | 3-(3,5-Dibromo-4-hydroxy-benzylidene)-5-(3-methylimidazol-1-yl-acetyl)-1,3-dihydro-indol-2-one [Example 71] |
| < 1 | 3-(3-Bromo-4-hydroxy-5-ethoxy-benzylidene)-5-(2-dimethylamino-acetyl)-1,3-dihydro-indol-2-one [Example 111] |
| < 1 | 5-{2-[N-Benzyl-N-(2-hydroxy-acetyl)-amino]-ethyl}-3-(3,5-dibromo-4-hydroxy-benzylidene)-1,3-dihydro-indol-2-one [Example 78] |
| < 1 | CCOc1cc(C=C2C(=O)Nc3ccc(-c4csc(C)n4)cc32)cc(Br)c1O [Example 3, 3-(3-Bromo-5-ethoxy-4-hydroxy-benzylidene)-5-(2-methyl-thiazol-4-yl)-1,3-dihydro-indol-2-one] |
| < 1 | Cc1nc(-c2ccc3c(c2)C(=Cc2cc(Cl)c(O)c(Cl)c2)C(=O)N3)cs1 [Example 4] |
| < 1 | CC(C)CC(=O)c1ccc2c(c1)C(=Cc1cc(Br)c(O)c(Br)c1)C(=O)N2 [Example 5] |
| < 1 | O=C1Nc2ccc(C(=O)c3ccccc3)cc2C1=Cc1cc(Br)c(O)c(Br)c1 [Example 6, 5-Benzoyl-3-(3,5-dibromo-4-hydroxy-benzylidene)-1,3 dihydro-indol-2-one] |
| < 1 | O=C1Nc2ccc(C(=O)c3ccccc3)cc2C1=Cc1cc(Cl)c(O)c(Cl)c1 [Example 7, 5-Benzoyl-3-(3,5-dichloro-4-hydroxy-benzylidene)-1,3-dihydro-indol-2-one] |
| < 1 | CC(C)CC(=O)c1ccc2c(c1)C(=Cc1cc(Cl)c(O)c(Cl)c1)C(=O)N2 [Example 9] |
| < 1 | CCOc1cc(C=C2C(=O)Nc3ccc(C(=O)CC(C)C)cc32)cc(Br)c1O [Example 10, 3-(3-Bromo-5-ethoxy-4-hydroxy-benzylidene)-5-(3-methyl-butanoyl)-1,3-dihydro-indol-2-one] |
| < 1 | O=C1Nc2ccc(C(=O)c3cccnc3)cc2C1=Cc1cc(Br)c(O)c(Br)c1 [Example 11] |
| < 1 | O=C1Nc2ccc(C(=O)c3cccnc3)cc2C1=Cc1cc(Cl)c(O)c(Cl)c1 [Example 12, 3-(3,5-Dichloro-4-hydroxy-benzylidiene)-5-(pyridine-3-carbonyl)-1,3-dihydro-indol-2-one] |
| < 1 | O=C1Nc2ccc(C(=O)c3ccncc3)cc2C1=Cc1cc(Br)c(O)c(Br)c1 [Example 13, 3-(3,5-Dibromo-4-hydroxy-benzylidene)-5-(pyridine-4-carbonyl)-1,3-dihydro-indol-2-one] |
| < 1 | CCOc1cc(C=C2C(=O)Nc3ccc(C(=O)c4ccncc4)cc32)cc(Br)c1O [Example 14, 3-(3-Bromo-5-ethoxy-4-hydroxy-benzylidene)-5-(pyridine-4-carbonyl)-1,3-dihydro-indol-2-one] |
| < 1 | O=C1Nc2ccc(C(=O)c3ccncc3)cc2C1=Cc1cc(Cl)c(O)c(Cl)c1 [Example 15, 3-(3,5-Dichloro-4-hydroxy-benzylidene)-5-(pyridine-4-carbonyl)-1,3-dihydro-indol-2-one] |
| < 1 | CCOc1cc(C=C2C(=O)Nc3ccc(C(=O)c4cccnc4)cc32)cc(Br)c1O [Example 16, 3-(3-Bromo-5-ethoxy-4-hydroxy-benzylidene)-5-(pyridine-3-carbonyl)-1,3-dihydro-indol-2-one] |

| IC50 [µM] | Compound |
| --- | --- |
| < 1 | O=C1Nc2ccc(-c3cnco3)cc2C1=Cc1cc(Cl)c(O)c(Cl)c1 [Example 17] |
| < 1 | O=C1Nc2ccc(-c3cnco3)cc2C1=Cc1cc(Br)c(O)c(Br)c1 [Example 18, 3-(3,4-Dibromo-4-hydroxy-benzylidene)-5-(oxazol-5-yl)-1,3-dihydro-indol-2-one] |
| < 1 | CCc1nc(-c2ccc3c(c2)C(=Cc2cc(Br)c(O)c(Br)c2)C(=O)N3)cs1 [Example 19, 3-(3,5-Dibromo-4-hydroxy-benzylidene)-5-(2-ethyl-thiazol-4-yl)-1,3-dihydro-indol-2-one] |
| < 1 | COC(=O)c1ccc2c(c1)C(=Cc1cc(Br)c(O)c(Br)c1)C(=O)N2 [Example 20, 3-(3,5-Dibromo-4-hydroxy-benzylidene)-2-oxo-2,3-dihydro-1H-indol-5-carboxylic acid methyl ester] |
| < 1 | O=C1Nc2ccc(C(=O)c3ccco3)cc2C1=Cc1cc(Br)c(O)c(Br)c1 [Example 21] |
| < 1 | O=C1Nc2ccc(C(=O)c3ccco3)cc2C1=Cc1cc(Cl)c(O)c(Cl)c1 [Example 22] |
| < 1 | CCOc1cc(C=C2C(=O)Nc3ccc(C(=O)c4ccco4)cc32)cc(Br)c1O [Example 23] |
| < 1 | O=C1Nc2ccc(C(=O)C3CC3)cc2C1=Cc1cc(Br)c(O)c(Br)c1 [Example 24, 5-Cyclopropanecarbonyl-3-(3,5-dibromo-4-hydroxy-benzylidene)-1,3-dihydro-indol-2-one] |
| < 1 | O=C1Nc2ccc(C(=O)C3CCCC3)cc2C1=Cc1cc(Br)c(O)c(Br)c1 [Example 26, 5-Cyclopentanecarbonyl-3-(3,5-dibromo-4-hydroxy-benzylidene)-1,3-dihydro-indol-2-one] |
| < 1 | COC(=O)c1ccc2c(c1)C(=Cc1cc(Cl)c(O)c(Cl)c1)C(=O)N2 [Example 27, 3-(3,5-Dichloro-4-hydroxy-benzylidene)-2-oxo-2,3-dihydro-1H-indole-5-carboxylic acid methyl ester] |
| 1 to 10 | O=C1Nc2ccccc2C1=Cc1cc(Br)c(O)c(Br)c1 [Example 28, 3-(3,5-Dibromo-4-hydroxy-benzylidene)-1,3-dihydro-indol-2-one] |
| < 1 | O=C1Nc2ccc(C(=O)c3cccs3)cc2C1=Cc1cc(Br)c(O)c(Br)c1 [Example 29, 3-(3,5-Dibromo-4-hydroxy-benzylidene)-5-(thiophene-2-carbonyl)-1,3-dihydro-indol-2-one] |
| < 1 | Nc1nc(-c2ccc3c(c2)C(=Cc2cc(Br)c(O)c(Br)c2)C(=O)N3)cs1 [Example 30, 5-(2-Amino-thiazol-4-yl)-3-(3,5-dibromo-4-hydroxy-benzylidene)-1,3-dihydro-indol-2-one] |
| < 1 | O=C1Nc2ccc(-c3cn4ccccc4n3)cc2C1=Cc1cc(Br)c(O)c(Br)c1 [Example 31, 3-(3,5-Dibromo-4-hydroxy-benzylidene)-5-(imidazo[1,2a]pyridin-2-yl)-1,3-dihydro-indol-2-one] |
| < 1 | CCC(=O)c1ccc2c(c1)C(=Cc1cc(Br)c(O)c(Br)c1)C(=O)N2 [Example 32, 3-(3,5-Dibromo-4-hydroxy-benzylidene)-5-propionyl-1,3-dihydro-indol-2-one] |
| < 1 | NS(=O)(=O)c1ccc2c(c1)C(=Cc1cc(Br)c(O)c(Br)c1)C(=O)N2 [Example 33, 3-(3,5-Dibromo-4-hydroxy-benzylidene)-2-oxo-2,3-dihydro-1H-indole-5-sulfonic acid amide] |
| < 1 | CCN(CC)S(=O)(=O)c1ccc2c(c1)C(=Cc1cc(Br)c(O)c(Br)c1)C(=O)N2 [Example 34, 3-(3,5-Dibromo-4-hydroxy-benzylidene)-2-oxo-2,3 dihydro-1H-indole-5-sulfonic acid N,N-diethylamide] |
